Each molecule was assayed on MOLT-4 (assay: NCI-60 antiproliferative screen (SRB)). Conditions: Homo sapiens; 10 µM single dose, 48 h; MOLT-4 (Leukemia); read-out: Growth inhibition (%).
Format: cell-based

Compound	inhibition at 10 µM [%]
O=C1Nc2ccc(F)cc2C1=Cc1ccc(OCc2cccnc2)cc1 (mixture of isomers) [Compound 5j, (E/Z)-5-Fluoro-3-[4-(pyridin-3-ylmethoxy)benzylidene]indolin-2-one]	88.5

What follows are molecules tested on RPMI-8226 (assay: NCI-60 antiproliferative screen (SRB)). Conditions: Homo sapiens; 10 µM single dose, 48 h; RPMI-8226 (Leukemia); read-out: Growth inhibition (%).
Format: cell-based, human

Compound	inhibition at 10 µM [%]
O=C1Nc2ccc(F)cc2C1=Cc1ccc(OCc2cccnc2)cc1 (mixture of isomers) [Compound 5j, (E/Z)-5-Fluoro-3-[4-(pyridin-3-ylmethoxy)benzylidene]indolin-2-one]	61.2

What follows are molecules tested on HOP-62 (assay: NCI-60 antiproliferative screen (SRB)). Conditions: Homo sapiens; 10 µM single dose, 48 h; HOP-62 (NSCLC); read-out: Growth inhibition (%).
Format: cell-based, human

Compound	inhibition at 10 µM [%]
O=C1Nc2ccc(F)cc2C1=Cc1ccc(OCc2cccnc2)cc1 (mixture of isomers) [Compound 5j, (E/Z)-5-Fluoro-3-[4-(pyridin-3-ylmethoxy)benzylidene]indolin-2-one]	45.4

Each molecule was assayed on HCC-2998 (assay: NCI-60 antiproliferative screen (SRB)). Conditions: Homo sapiens; 10 µM single dose, 48 h; HCC-2998 (Colon); read-out: Growth inhibition (%).
Format: cell-based, human

Compound	inhibition at 10 µM [%]
O=C1Nc2ccc(F)cc2C1=Cc1ccc(OCc2cccnc2)cc1 (mixture of isomers) [Compound 5j, (E/Z)-5-Fluoro-3-[4-(pyridin-3-ylmethoxy)benzylidene]indolin-2-one]	23.4

These molecules were tested on HCT-116 (assay: NCI-60 antiproliferative screen (SRB)). Conditions: Homo sapiens; 10 µM single dose, 48 h; HCT-116 (Colon); read-out: Growth inhibition (%).
Format: cell-based, human

Compound	inhibition at 10 µM [%]
O=C1Nc2ccc(F)cc2C1=Cc1ccc(OCc2cccnc2)cc1 (mixture of isomers) [Compound 5j, (E/Z)-5-Fluoro-3-[4-(pyridin-3-ylmethoxy)benzylidene]indolin-2-one]	84.7

What follows are molecules tested on KM12 (assay: NCI-60 antiproliferative screen (SRB)). Conditions: Homo sapiens; 10 µM single dose, 48 h; KM12 (Colon); read-out: Growth inhibition (%).
Format: cell-based, human

Compound	inhibition at 10 µM [%]
O=C1Nc2ccc(F)cc2C1=Cc1ccc(OCc2cccnc2)cc1 (mixture of isomers) [Compound 5j, (E/Z)-5-Fluoro-3-[4-(pyridin-3-ylmethoxy)benzylidene]indolin-2-one]	97.3

What follows are molecules tested on SW-620 (assay: NCI-60 antiproliferative screen (SRB)). Conditions: Homo sapiens; 10 µM single dose, 48 h; SW-620 (Colon); read-out: Growth inhibition (%).
Format: cell-based, human

Compound	inhibition at 10 µM [%]
O=C1Nc2ccc(F)cc2C1=Cc1ccc(OCc2cccnc2)cc1 (mixture of isomers) [Compound 5j, (E/Z)-5-Fluoro-3-[4-(pyridin-3-ylmethoxy)benzylidene]indolin-2-one]	70.1

The molecules below were run on SF-295 (assay: NCI-60 antiproliferative screen (SRB)). Conditions: Homo sapiens; 10 µM single dose, 48 h; SF-295 (CNS); read-out: Growth inhibition (%).
Format: cell-based, human

Compound	inhibition at 10 µM [%]
O=C1Nc2ccc(F)cc2C1=Cc1ccc(OCc2cccnc2)cc1 (mixture of isomers) [Compound 5j, (E/Z)-5-Fluoro-3-[4-(pyridin-3-ylmethoxy)benzylidene]indolin-2-one]	54.8

The molecules below were run on SF-539 (assay: NCI-60 antiproliferative screen (SRB)). Conditions: Homo sapiens; 10 µM single dose, 48 h; SF-539 (CNS); read-out: Growth inhibition (%).
Format: cell-based, human

Compound	inhibition at 10 µM [%]
O=C1Nc2ccc(F)cc2C1=Cc1ccc(OCc2cccnc2)cc1 (mixture of isomers) [Compound 5j, (E/Z)-5-Fluoro-3-[4-(pyridin-3-ylmethoxy)benzylidene]indolin-2-one]	63.3

The molecules below were run on U251 (assay: NCI-60 antiproliferative screen (SRB)). Conditions: Homo sapiens, U-251; 10 µM single dose, 48 h; U251 (CNS); read-out: Growth inhibition (%).
Format: cell-based, human

Compound	inhibition at 10 µM [%]
O=C1Nc2ccc(F)cc2C1=Cc1ccc(OCc2cccnc2)cc1 (mixture of isomers) [Compound 5j, (E/Z)-5-Fluoro-3-[4-(pyridin-3-ylmethoxy)benzylidene]indolin-2-one]	83.7

The molecules below were run on M14 (assay: NCI-60 antiproliferative screen (SRB)). Conditions: Homo sapiens; 10 µM single dose, 48 h; M14 (Melanoma); read-out: Growth inhibition (%).
Format: cell-based, human

Compound	inhibition at 10 µM [%]
O=C1Nc2ccc(F)cc2C1=Cc1ccc(OCc2cccnc2)cc1 (mixture of isomers) [Compound 5j, (E/Z)-5-Fluoro-3-[4-(pyridin-3-ylmethoxy)benzylidene]indolin-2-one]	67.1

Each molecule was assayed on SK-MEL-2 (assay: NCI-60 antiproliferative screen (SRB)). Conditions: Homo sapiens; 10 µM single dose, 48 h; SK-MEL-2 (Melanoma); read-out: Growth inhibition (%).
Format: cell-based, human

Compound	inhibition at 10 µM [%]
O=C1Nc2ccc(F)cc2C1=Cc1ccc(OCc2cccnc2)cc1 (mixture of isomers) [Compound 5j, (E/Z)-5-Fluoro-3-[4-(pyridin-3-ylmethoxy)benzylidene]indolin-2-one]	50.4

The molecules below were run on SK-MEL-28 (assay: NCI-60 antiproliferative screen (SRB)). Conditions: Homo sapiens; 10 µM single dose, 48 h; SK-MEL-28 (Melanoma); read-out: Growth inhibition (%).
Format: cell-based, human

Compound	inhibition at 10 µM [%]
O=C1Nc2ccc(F)cc2C1=Cc1ccc(OCc2cccnc2)cc1 (mixture of isomers) [Compound 5j, (E/Z)-5-Fluoro-3-[4-(pyridin-3-ylmethoxy)benzylidene]indolin-2-one]	28.2

Each molecule was assayed on UACC-257 (assay: NCI-60 antiproliferative screen (SRB)). Conditions: Homo sapiens; 10 µM single dose, 48 h; UACC-257 (Melanoma); read-out: Growth inhibition (%).
Format: cell-based, human

Compound	inhibition at 10 µM [%]
O=C1Nc2ccc(F)cc2C1=Cc1ccc(OCc2cccnc2)cc1 (mixture of isomers) [Compound 5j, (E/Z)-5-Fluoro-3-[4-(pyridin-3-ylmethoxy)benzylidene]indolin-2-one]	39.8

These molecules were tested on OVCAR-3 (assay: NCI-60 antiproliferative screen (SRB)). Conditions: Homo sapiens; 10 µM single dose, 48 h; OVCAR-3 (Ovarian); read-out: Growth inhibition (%).
Format: cell-based, human

Compound	inhibition at 10 µM [%]
O=C1Nc2ccc(F)cc2C1=Cc1ccc(OCc2cccnc2)cc1 (mixture of isomers) [Compound 5j, (E/Z)-5-Fluoro-3-[4-(pyridin-3-ylmethoxy)benzylidene]indolin-2-one]	9.05

Each molecule was assayed on OVCAR-5 (assay: NCI-60 antiproliferative screen (SRB)). Conditions: Homo sapiens; 10 µM single dose, 48 h; OVCAR-5 (Ovarian); read-out: Growth inhibition (%).
Format: cell-based, human

Compound	inhibition at 10 µM [%]
O=C1Nc2ccc(F)cc2C1=Cc1ccc(OCc2cccnc2)cc1 (mixture of isomers) [Compound 5j, (E/Z)-5-Fluoro-3-[4-(pyridin-3-ylmethoxy)benzylidene]indolin-2-one]	-11.2

Each molecule was assayed on OVCAR-8 (assay: NCI-60 antiproliferative screen (SRB)). Conditions: Homo sapiens; 10 µM single dose, 48 h; OVCAR-8 (Ovarian); read-out: Growth inhibition (%).
Format: cell-based, human

Compound	inhibition at 10 µM [%]
O=C1Nc2ccc(F)cc2C1=Cc1ccc(OCc2cccnc2)cc1 (mixture of isomers) [Compound 5j, (E/Z)-5-Fluoro-3-[4-(pyridin-3-ylmethoxy)benzylidene]indolin-2-one]	65.1

The molecules below were run on NCI/ADR-RES (assay: NCI-60 antiproliferative screen (SRB)). Conditions: Homo sapiens; 10 µM single dose, 48 h; NCI/ADR-RES (Ovarian); read-out: Growth inhibition (%).
Format: cell-based, human

Compound	inhibition at 10 µM [%]
O=C1Nc2ccc(F)cc2C1=Cc1ccc(OCc2cccnc2)cc1 (mixture of isomers) [Compound 5j, (E/Z)-5-Fluoro-3-[4-(pyridin-3-ylmethoxy)benzylidene]indolin-2-one]	85.6

These molecules were tested on A498 (assay: NCI-60 antiproliferative screen (SRB)). Conditions: Homo sapiens; 10 µM single dose, 48 h; A498 (Renal); read-out: Growth inhibition (%).
Format: cell-based, human

Compound	inhibition at 10 µM [%]
O=C1Nc2ccc(F)cc2C1=Cc1ccc(OCc2cccnc2)cc1 (mixture of isomers) [Compound 5j, (E/Z)-5-Fluoro-3-[4-(pyridin-3-ylmethoxy)benzylidene]indolin-2-one]	-29.1

These molecules were tested on CAKI-1 (assay: NCI-60 antiproliferative screen (SRB)). Conditions: Homo sapiens; 10 µM single dose, 48 h; CAKI-1 (Renal); read-out: Growth inhibition (%).
Format: cell-based, human

Compound	inhibition at 10 µM [%]
O=C1Nc2ccc(F)cc2C1=Cc1ccc(OCc2cccnc2)cc1 (mixture of isomers) [Compound 5j, (E/Z)-5-Fluoro-3-[4-(pyridin-3-ylmethoxy)benzylidene]indolin-2-one]	67.6

These molecules were tested on RXF 393 (assay: NCI-60 antiproliferative screen (SRB)). Conditions: Homo sapiens; 10 µM single dose, 48 h; RXF 393 (Renal); read-out: Growth inhibition (%).
Format: cell-based, human

Compound	inhibition at 10 µM [%]
O=C1Nc2ccc(F)cc2C1=Cc1ccc(OCc2cccnc2)cc1 (mixture of isomers) [Compound 5j, (E/Z)-5-Fluoro-3-[4-(pyridin-3-ylmethoxy)benzylidene]indolin-2-one]	37.3

The molecules below were run on PC-3 (assay: NCI-60 antiproliferative screen (SRB)). Conditions: Homo sapiens; 10 µM single dose, 48 h; PC-3 (Prostate); read-out: Growth inhibition (%).
Format: cell-based, human

Compound	inhibition at 10 µM [%]
O=C1Nc2ccc(F)cc2C1=Cc1ccc(OCc2cccnc2)cc1 (mixture of isomers) [Compound 5j, (E/Z)-5-Fluoro-3-[4-(pyridin-3-ylmethoxy)benzylidene]indolin-2-one]	43.6

Each molecule was assayed on DU-145 (assay: NCI-60 antiproliferative screen (SRB)). Conditions: Homo sapiens; 10 µM single dose, 48 h; DU-145 (Prostate); read-out: Growth inhibition (%).
Format: cell-based, human

Compound	inhibition at 10 µM [%]
O=C1Nc2ccc(F)cc2C1=Cc1ccc(OCc2cccnc2)cc1 (mixture of isomers) [Compound 5j, (E/Z)-5-Fluoro-3-[4-(pyridin-3-ylmethoxy)benzylidene]indolin-2-one]	46.1

Each molecule was assayed on MCF7 (assay: NCI-60 antiproliferative screen (SRB)). Conditions: Homo sapiens; 10 µM single dose, 48 h; MCF7 (Breast); read-out: Growth inhibition (%).
Format: cell-based, human

Compound	inhibition at 10 µM [%]
O=C1Nc2ccc(F)cc2C1=Cc1ccc(OCc2cccnc2)cc1 (mixture of isomers) [Compound 5j, (E/Z)-5-Fluoro-3-[4-(pyridin-3-ylmethoxy)benzylidene]indolin-2-one]	91

What follows are molecules tested on MDA-MB-231 (assay: NCI-60 antiproliferative screen (SRB)). Conditions: Homo sapiens; 10 µM single dose, 48 h; MDA-MB-231 (Breast); read-out: Growth inhibition (%).
Format: cell-based, human

Compound	inhibition at 10 µM [%]
O=C1Nc2ccc(F)cc2C1=Cc1ccc(OCc2cccnc2)cc1 (mixture of isomers) [Compound 5j, (E/Z)-5-Fluoro-3-[4-(pyridin-3-ylmethoxy)benzylidene]indolin-2-one]	42

Each molecule was assayed on MDA-MB-468 (assay: NCI-60 antiproliferative screen (SRB)). Conditions: Homo sapiens; 10 µM single dose, 48 h; MDA-MB-468 (Breast); read-out: Growth inhibition (%).
Format: cell-based, human

Compound	inhibition at 10 µM [%]
O=C1Nc2ccc(F)cc2C1=Cc1ccc(OCc2cccnc2)cc1 (mixture of isomers) [Compound 5j, (E/Z)-5-Fluoro-3-[4-(pyridin-3-ylmethoxy)benzylidene]indolin-2-one]	58.5

Each molecule was assayed on SR (assay: NCI-60 antiproliferative screen (SRB)). Conditions: Homo sapiens, 48 h, read-out: Growth inhibition (%).

Compound	inhibition at 10 µM [%]
O=C1Nc2ccc(F)cc2C1=Cc1ccc(OCc2cccnc2)cc1 (mixture of isomers) [Compound 5j, (E/Z)-5-Fluoro-3-[4-(pyridin-3-ylmethoxy)benzylidene]indolin-2-one]	73

The molecules below were run on OVCAR-4 (assay: NCI-60 antiproliferative screen (SRB)). Conditions: Homo sapiens, OVCAR-4, 48 h, read-out: Growth inhibition (%).

Compound	inhibition at 10 µM [%]
O=C1Nc2ccc(F)cc2C1=Cc1ccc(OCc2cccnc2)cc1 (mixture of isomers) [Compound 5j, (E/Z)-5-Fluoro-3-[4-(pyridin-3-ylmethoxy)benzylidene]indolin-2-one]	47.2
